Measured values as given in patent publication US7425557B2, “Inhibitors of glycogen synthase kinase 3” (Novartis Vaccines and Diagnostics, Inc., priority 1998, dated 2008).

Molecular target: human GSK3β (Homo sapiens, UniProt P49841)
Assay: Screening for GSK3 inhibitory activity using a cell-free assay
Type: biochemical
Conditions: read-out: IC50 with respect to GSK3
Protocol: This amount represents the amount of radiolabeled phosphate incorporated into the peptide substrate.
The captured radiolabeled peptide substrate can be quantitated in a scintillation counter using known methods. […] If an inhibitor is present during the reaction, GSK3 activity will be reduced, and a smaller quantity of radiolabeled phosphate will thus be incorporated into the peptide substrate.
Pyrimidine and pyridine compounds of the present invention were dissolved in DMSO, then tested for inhibition of human GSK3β (the nucleotide sequence for human GSK3β appears in GenBank under Accession No. L33801).
While the reaction was proceeding, streptavidin-coated Labsystems “Combiplate 8” capture plates (Labsystems, Helsinki, Finland) were blocked by incubating them with 300 μl/well of PBS containing 1% bovine serum albumin for at least one hour at room temperature. The blocking solution was then removed by aspiration, and the capture plates were filled with 100 ul/well of stopping reagent (50 μM ATP/20 mM EDTA).
When the three hour enzyme reaction was finished, triplicate 100 μl aliquots of each reaction mix were transferred to three wells containing stopping solution, one well on each of the three capture plates, and the well contents were mixed well. […] Finally, 200 μl of Microscint-20 scintillation fluid was added to each well of the plate. The plates were coated with plate sealers, then left on a shaker for 30 minutes. Each capture plate was counted in a Packard TopCount scintillation counter (Meridian, Conn.) and the results were plotted as a function of compound concentration.

Chain of human GSK3β (P49841 whole entry): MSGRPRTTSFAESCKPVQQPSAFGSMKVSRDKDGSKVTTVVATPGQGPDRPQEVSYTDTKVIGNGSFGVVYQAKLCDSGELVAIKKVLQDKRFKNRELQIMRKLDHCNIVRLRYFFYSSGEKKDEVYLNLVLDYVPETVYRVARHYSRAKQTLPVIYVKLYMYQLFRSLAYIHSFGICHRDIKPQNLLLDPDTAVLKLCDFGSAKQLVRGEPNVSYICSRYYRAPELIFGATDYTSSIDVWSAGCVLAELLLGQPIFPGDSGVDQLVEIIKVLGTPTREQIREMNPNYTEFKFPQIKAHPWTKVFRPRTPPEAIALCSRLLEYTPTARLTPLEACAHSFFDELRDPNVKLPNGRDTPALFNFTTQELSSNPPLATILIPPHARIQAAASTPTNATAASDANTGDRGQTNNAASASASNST

`O=c1ccccn1-c1cnc(NCCNc2ccc([N+](=O)[O-])cn2)nc1-c1ccc(Cl)cc1Cl` and `O=[N+]([O-])c1ccc(NCCNc2ncc(-n3cccn3)c(-c3ccc(Cl)cc3Cl)n2)nc1` cannot be ordered by IC50: at most 1000 nM for the first, at most 1000 nM for the second.

`N#Cc1ccc(-c2nc(NCCNc3ccc([N+](=O)[O-])cn3)ncc2C(=O)OCCN(CCO)CCO)cc1` and `N#Cc1ccc(-c2nc(NCCNc3ccc([N+](=O)[O-])cn3)ncc2C(=O)OCCO)cc1` [2-hydroxyethyl 4-(4-cyanophenyl)-2-({2-[(5-nitro(2-pyridyl))-amino]ethyl}amino)pyrimidine-5-carboxylate] cannot be ordered by IC50: at most 1000 nM for the first, at most 1000 nM for the second.

`CN(C)CCOC(=O)c1cnc(NCCNc2ccc([N+](=O)[O-])c(N)n2)nc1-c1ccc(C#N)cc1` and `CN(C)CCOC(=O)c1cnc(NCCNc2ccc([N+](=O)[O-])cn2)nc1-c1ccc(C#N)cc1` cannot be ordered by IC50: at most 1000 nM for the first, at most 1000 nM for the second.

`NC(=O)c1ccc(-c2ccnc(NCCc3ccc4c(c3)OCO4)n2)cc1` and `NC(=O)c1ccc(-c2ccnc(NCCc3cccc(Cl)c3)n2)cc1` cannot be ordered by IC50: at most 10000 nM for the first, at most 10000 nM for the second.

`NC(=O)c1ccc(-c2ccnc(NCCNc3nc4ccccc4s3)n2)cc1` and `O=[N+]([O-])c1ccc(NCCNc2nccc(-c3cccc(O)c3)n2)nc1` [3-[2-({2-[(5-nitro-2-pyridyl)amino]ethyl}-amino)pyrimidin-4-yl]phenol] cannot be ordered by IC50: at most 10000 nM for the first, at most 10000 nM for the second.

`CN(C)CCCCOC(=O)c1cnc(NCCNc2ccc([N+](=O)[O-])cn2)nc1-c1ccc(C#N)cc1` and `CN(C)CCCOC(=O)c1cnc(NCCNc2ccc([N+](=O)[O-])cn2)nc1-c1ccc(C#N)cc1` [3-(dimethylamino)propyl 4-(4-cyanophenyl)-2-({2-[(5-nitro(2-pyridyl))amino]ethyl}amino)pyrimidine-5-carboxylate] cannot be ordered by IC50: at most 1000 nM for the first, at most 1000 nM for the second.

`Nc1nc(NCCNc2ncc(N3C(=O)c4cccnc4C3=O)c(-c3ccc(Cl)cc3Cl)n2)ccc1[N+](=O)[O-]` and `Nc1nc(NCCNc2ncc(N3C(=O)c4ccccc4C3=O)c(-c3ccc(Cl)cc3Cl)n2)ccc1[N+](=O)[O-]` [2-[2-({2-[(6-amino-5-nitro(2-pyridyl))amino]ethyl}amino)-4-(2,4-dichlorophenyl)pyrimidin-5-yl]isoindoline-1,3-dione] cannot be ordered by IC50: at most 1000 nM for the first, at most 1000 nM for the second.

`N#Cc1ccc(NCCNc2ncc(-n3cc(Cl)ccc3=O)c(-c3ccc(Cl)cc3Cl)n2)nc1` and `CN1CC(=O)N(c2cnc(NCCNc3ccc([N+](=O)[O-])cn3)nc2-c2ccc(Cl)cc2Cl)C(=O)C1` [1-[4-(2,4-dichlorophenyl)-2-({2-[(5-nitro(2-pyridyl))amino]ethyl}amino)pyrimidin-5-yl]-4-methylpiperazine-2,6-dione] cannot be ordered by IC50: at most 1000 nM for the first, at most 1000 nM for the second.

`Nc1nc(NCCNc2ncc(C(=O)O)c(-c3ccc([N+](=O)[O-])cc3)n2)ccc1[N+](=O)[O-]` and `CCOC(=O)c1cnc(NCCNc2ccc([N+](=O)[O-])cn2)nc1-c1ccc([N+](=O)[O-])cc1` cannot be ordered by IC50: at most 1000 nM for the first, at most 1000 nM for the second.

`Cc1cn(-c2cnc(NCCNc3ccc([N+](=O)[O-])c(N)n3)nc2-c2ccc(Cl)cc2Cl)c(C)n1` and `Cc1nccn1-c1cnc(NCCNc2ccc([N+](=O)[O-])c(N)n2)nc1-c1ccc(Cl)cc1Cl` cannot be ordered by IC50: at most 1000 nM for the first, at most 1000 nM for the second.

`CCc1cnc(NCCNc2ccccn2)nc1-c1ccccc1` and `N#Cc1cnc(NCCNc2ccc([N+](=O)[O-])cn2)nc1-c1ccccc1` [2-({2-[(5-nitro(2-pyridyl))amino]ethyl}amino)-4-phenylpyrimidine-5-carbonitrile] cannot be ordered by IC50: at most 10000 nM for the first, at most 1000 nM for the second.

`O=[N+]([O-])c1ccc(NCCNc2nccc(NCc3ccc(Cl)cc3Cl)n2)nc1` and `N#Cc1cccc(-c2ccnc(NCCNc3ccc([N+](=O)[O-])cn3)n2)c1` [3-[2-({2-[(5-nitro-2-pyridyl)amino]ethyl}amino)pyrimidin-4-yl]benzenecarbonitrile] cannot be ordered by IC50: at most 10000 nM for the first, at most 10000 nM for the second.

`CCOC(=O)c1cnc(NCCNc2ccc([N+](=O)[O-])cn2)nc1-c1ccc(OC(F)(F)F)cc1` and `CCOC(=O)c1cnc(NCCNc2ccc([N+](=O)[O-])cn2)nc1-c1ccc2c(c1)OCO2` cannot be ordered by IC50: at most 1000 nM for the first, at most 1000 nM for the second.

`CCOC(=O)c1c(-c2ccncc2)nc(NCCNc2ccc([N+](=O)[O-])cn2)nc1-c1ccc(C(N)=O)cc1` and `O=C(O)c1c(-c2ccncc2)nc(NCCNc2ccc([N+](=O)[O-])cn2)nc1-c1ccc([N+](=O)[O-])cc1` [2-({2-[(5-nitro(2-pyridyl))amino]ethyl}amino)-6-(4-nitrophenyl)-4-(4-pyridyl)pyrimidine-5-carboxylic acid] cannot be ordered by IC50: at most 1000 nM for the first, at most 10000 nM for the second.

`CCOC(=O)c1cnc(NCCNc2ccc([N+](=O)[O-])c(NCc3ccccc3)n2)nc1-c1ccc(C#N)cc1` and `N#Cc1ccc(-c2nc(NCCNc3ccc([N+](=O)[O-])cn3)ncc2C(=O)OCCN2CCOCC2)cc1` [2-morpholin-4-ylethyl 4-(4-cyanophenyl)-2-({2-[(5-nitro(2-pyridyl))amino]ethyl}-amino)pyrimidine-5-carboxylate] cannot be ordered by IC50: at most 10000 nM for the first, at most 1000 nM for the second.

`CN1CC(=O)N(c2cnc(NCCNc3ccc([N+](=O)[O-])c(N)n3)nc2-c2ccc(Cl)cc2Cl)C(=O)C1` [1-[2-({2-[(6-amino-5-nitro(2-pyridyl))amino]ethyl}-amino)-4-(2,4-dichlorophenyl)pyrimidin-5-yl]-4-methylpiperazine-2,6-dione] and `Nc1nc(NCCNc2ncc(N3C(=O)CCC3=O)c(-c3ccc(Cl)cc3Cl)n2)ccc1[N+](=O)[O-]` [1-[2-({2-[(6-amino-5-nitro(2-pyridyl))amino]ethyl}amino)-4-(2,4-dichlorophenyl)pyrimidin-5-yl]-pyrrolidine-2,5-dione] cannot be ordered by IC50: at most 1000 nM for the first, at most 1000 nM for the second.

`CN(C)C1CC(=O)N(c2cnc(NCCNc3ccc([N+](=O)[O-])c(N)n3)nc2-c2ccc(Cl)cc2Cl)C1=O` (centres unmarked) [1-[2-({2-[(6-amino-5-nitro(2-pyridyl))amino]ethyl}amino)-4-(2,4-dichlorophenyl)pyrimidin-5-yl]-3-(dimethylamino)pyrrolidine-2,5-dione] and `Nc1nc(NCCNc2ncc(N3C(=O)CC(N4CCOCC4)C3=O)c(-c3ccc(Cl)cc3Cl)n2)ccc1[N+](=O)[O-]` (centres unmarked) [1-[2-({2-[(6-amino-5-nitro(2-pyridyl))amino]ethyl}amino)-4-(2,4-dichlorophenyl)pyrimidin-5-yl]-3-morpholin-4-ylpyrrolidine-2,5-dione] cannot be ordered by IC50: at most 1000 nM for the first, at most 1000 nM for the second.

`CN1CCN(c2ccc(NCCNc3ccc([N+](=O)[O-])c(N)n3)nc2-c2cccnc2)C(=O)C1` [1-{6-[2-(6-Amino-5-nitropyridin-2-ylamino)-ethylamino]-[2,3′]bipyridinyl-3-yl}-4-methyl-piperazin-2-one] and `Nc1nc(NCCNc2ncc(C(=O)O)c(-c3ccc(Cl)cc3Cl)n2)ccc1[N+](=O)[O-]` [2-({2-[(6-amino-5-nitro(2-pyridyl))amino]ethyl}amino)-4-(2,4-dichlorophenyl)pyrimidine-5-carboxylic acid] cannot be ordered by IC50: at most 10000 nM for the first, at most 1000 nM for the second.

`CN(C)CCOC(=O)c1cnc(NCCNc2ccc([N+](=O)[O-])c(N)n2)nc1-c1ccc(Cl)cc1Cl` [2-(dimethylamino)ethyl 2-({2-[(6-amino-5-nitro(2-pyridyl))amino]ethyl}amino)-4-(2,4-dichlorophenyl)pyrimidine-5-carboxylate] and `N#Cc1cnc(NCCNc2ccc([N+](=O)[O-])c(N)n2)nc1-c1ccc(Cl)cc1Cl` [2-({2-[(6-amino-5-nitro(2-pyridyl))amino]ethyl}amino)-4-(2,4-dichlorophenyl)pyrimidine-5-carbonitrile] cannot be ordered by IC50: at most 1000 nM for the first, at most 1000 nM for the second.

`O=C(O)c1c(-c2ccccc2)nc(NCCNc2ccc([N+](=O)[O-])cn2)nc1-c1ccc([N+](=O)[O-])cc1` [2-({2-[(5-nitro(2-pyridyl))amino]ethyl}-amino)-6-(4-nitrophenyl)-4-phenylpyrimidine-5-carboxylic acid] and `O=C(O)c1c(-c2ccc([N+](=O)[O-])cc2)nc(NCCNc2ccc([N+](=O)[O-])cn2)nc1-c1cccc([N+](=O)[O-])c1` [2-({2-[(5-nitro(2-pyridyl))amino]ethyl}amino)-4-(3-nitrophenyl)-6-(4-nitrophenyl)pyrimidine-5-carboxylic acid] cannot be ordered by IC50: at most 10000 nM for the first, at most 10000 nM for the second.

`O=C(O)c1c(-c2ccc([N+](=O)[O-])cc2)nc(NCCNc2ccc([N+](=O)[O-])cn2)nc1-c1ccnc2ccccc12` [2-({2-[(5-nitro(2-pyridyl))amino]ethyl}amino)-6-(4-nitrophenyl)-4-(4-quinolyl)pyrimidine-5-carboxylic acid] and `O=C(O)c1c(-c2ccc([N+](=O)[O-])cc2)nc(NCCNc2ccc([N+](=O)[O-])cn2)nc1-c1ccc(C(F)(F)F)cc1` [2-({2-[(5-nitro(2-pyridyl))amino]ethyl}amino)-6-(4-nitrophenyl)-4-[4-(trifluoromethyl)phenyl]pyrimidine-5-carboxylic acid] cannot be ordered by IC50: at most 10000 nM for the first, at most 10000 nM for the second.

`N#Cc1cnc(NCCNc2ccc([N+](=O)[O-])c(N)n2)nc1-c1ccc(Cl)c(Cl)c1` [2-({2-[(6-amino-5-nitro(2-pyridyl))amino]ethyl}amino)-4-(3,4-dichlorophenyl)pyrimidine-5-carbonitrile] and `N#Cc1ccc(-c2nc(NCCNc3ccc([N+](=O)[O-])cn3)ncc2C(=O)OCC(O)CN2CCOCC2)cc1` (centres unmarked) [2-hydroxy-3-morpholin-4-yl-propyl 4-(4-cyanophenyl)-2-({2-[(5-nitro(2-pyridyl))amino]ethyl}amino)pyrimidine-5-carboxylate] cannot be ordered by IC50: at most 10000 nM for the first, at most 1000 nM for the second.
